Results from US11959104B2, “Methods of differentiating stem cell-derived ectodermal lineage precursors” (MEMORIAL SLOAN-KETTERING CANCER CENTER, priority 2016, dated 2024).
Entries after “also recorded” stand apart in the source; their conditions may differ. Like-named read-outs stand apart in the source and are kept apart here. Ends that are not written are not given here.

Tests used:
[1] = system: Six1::H2B-GFP reporter line; experiment: LOPAC small molecule screen and validation for enhanced CP induction
Method: All differentiations starting from E8 were dissociated into single cells using EDTA and replated at high density in E8 with the ROCK inhibitor (Tocris). Cells were typically seeded at a density of 200,000 cells/cm^2 on Matrigel coated dishes. Switching from E8 to E6 triggered differentiations (i.e. d0). Neuroectoderm (NE) formation was generated by culturing the cells in E6 with 10 nM SB and 500 nM LDN until d12. Neural Crest (NC) was first treated with 10 nM SB, 600 nM CHIR and 1 ng/ml BMP4 from d0-d2. […] Lens placode was first treated with 10 nM SB and 5 ng/ml BMP4 from d0-d2. At d2, cells were maintained in 10 nM SB with 100 ng/ml FGF2 until d12. Trigeminal placode was first treated with 10 nM SB and 5 ng/ml BMP4 from d0-d2. At d2, CHIR was added to the SB and BMP4 until d4. Finally, non-neural ectoderm (NNE) was treated with 10 nM SB, 10 nM SU5402 and 20 ng/ml BMP4 until d12.

[2] = system: hPSC-derived pituitary cells; experiment: Stimulation of hormone release in vitro (ELISA); assay type: cell-based, human; conditions: day 30 of differentiation
Method: To stimulate hormone release in vitro, cells were differentiated in 24 well plates as described above. On day 30 of differentiation cells were washed once with PBS and 250 μl of fresh medium containing either the solvent or the stimulant were added to each well. After 12 h the supernatant was removed and centrifuged for 5 min at 2000 g to pellet debris. Supernatant was transferred into fresh reaction tubes, flash frozen and stored at −80° C. until ELISA measurements. Stimulants used were: CRF (Tocris, 1 μM), Stressin I (Tocris, 2 μM), Ghrelin (Tocris, 1 μM), Somatocrinin (Accurate Chemical, 1 μg/ml), Nafarelin (Tocris, 1 μM) and Urocortin (Tocris, 500 nM).
Hormone concentration in the supernatant of cells or in animal serum was analyzed using ELISA measurements. Hormone concentration in the cell culture supernatant was assessed using traditional single hormone ELISA Kits according to the manufactures manual. ACTH (Calbiotech, detects rat and human ACTH), hGH (R&D Systems, human specific), FSH (Calbiotech, FSH (lumELISA, human specific) and corticosterone (Abcam). Plates were read using an EnSpire Multimode plate reader (PerkinElmer). Hormone concentration in in vivo samples was analyzed using either traditional ELISA (for ACTH only, serum diluted 1:2) or species specific (human or rat) Milliplex multiplex ELISA using Luminex technology (Millipore). Magnetic bead-based sandwich immunoassay was performed according to the manufactures manual. 25 μl of undiluted serum samples in duplicate wells were analyzed by Luminex FlexMap 3D (Luminex Corp, Austin, TX). Cytokine concentrations were determined by Luminex Xponent 4.1 and EMD-Millipore Milliplex Analyst v5.1 using 5-p log analysis.

[3] = system: hPSC-derived cranial placode; experiment: Pituitary placode induction, day 15 (qRT-PCR, immunofluorescence); assay type: cell-based; conditions: for induction of anterior pituitary genes / lineage markers: from day 4, day 15 analysis
Method: For pituitary differentiation cells were plated at 250 000 cells/cm^2 on VTN-N coated dishes (differentiation works best in 24 well plates) in E8+10 μM Y-27632. After 24 h (day 0) medium was changed to E6 supplemented with 10 μM SB431542 and 5 ng/ml BMP4 (R&D Systems). Medium was changed every day. On day 3 BMP4 was removed from the medium and cells were cultured for 1 day in E6+10 μM SB431542. For the standard differentiation conditions, on day 4 E6 was supplemented with 10 μM SB431542, 200 ng/ml SHH (R&D Systems, C25II), 100 ng/ml FGF8b (R&D Systems) and 50 ng/ml FGF10 (Peprotech Inc.). For some experiments SHH was replaced by 1 μM purmorphamine (Stemgent) or 1 μM SAG (Stemcell Technologies). From now on medium volume was doubled and cells were feed every other day until day 15. On day 15 of differentiation SIX1 H2B::GFP^+ cells were sorted using a BDFACS Aria III cell sorter. Purified cells were then plated as droplets (50 000 cells/10 μl drop) in E6 supplemented with 10 Y-27632, 200 ng/ml SHH, 100 ng/ml FGF8b and 50 ng/ml FGF10 on polyornithine/laminin/fibronectin-coated plates. After 24 h medium was changed to E6 containing SHH, FGF8 and FGF10 until day 30. Medium was changed every other day. For some experiments pituitary induction was started slightly later (day 6) or cells were differentiated in medium conditioned by hypothalamic neuroectoderm from either day 4 or day 6 on. For the co-culture experiment SIX1 H2B::GFP positive cells were sorted on day 6 and 50 000 cells/cm^2 were plated directly on hypothalamic neuroectodermal cells in E6 only supplemented with 10 SB431542.
Total RNA was extracted from at least 3 independent experiments using the TRIzol (Fisher Scientific) reagent in combination with Phase-lock tubes (5Prime) according to the manufactures protocol. 1 μg of total RNA was reverse transcribed into cDNA using iScript (BioRad). For quantitative RT PCR we used the SSoFast EvaGreen Mix (BioRad) in combination with QuantiTect primer assays (Qiagen) on a BioRad CFX96 Thermal Cycler. All reactions were run according to the manufacturer's protocol. Results are calculated using the ΔΔCt method (Livak and Schmittgen, 2001).
After washing the cells once with PBS, cells were fixed with 4% (v/v) paraformaldehyde for 20 min, washed twice with PBS, permeabilized using 0.1% (v/v) Triton X-100 in PBS, Cells were blocked with 10% (v/v) FCS in PBS for 1-5 h at room temperature. Cells were incubated with primary antibodies diluted in 2% FCS (v/v) in PBS at 4° C. overnight. A list of the primary antibodies used in this study is provided as FIG. 28. […] After and additional 2 washing steps, fluorescence images of the cells were taken using an Olympus IX71 inverted microscope equipped with a Hamamatsu ORCA CCD camera.

[4] = system: hPSCs; experiment: Toxicity of KSR-protocol small molecule concentrations in E6 differentiation; assay type: cell-based, human; conditions: original KSR-protocol concentration used in E6
From the text: To transition these protocols into the more defined E6 media, we adapted hPSCs in E8 for multiple passages and simply replaced the KSR-based medium with an E6 based differentiation while maintaining factors and concentrations as described previously to trigger the 4 major ectodermal lineages (FIG. 9A). […] After determining an optimal non-toxic concentration for each of the small molecules we observed that NE formation under E6 conditions was equivalent to that obtained with KSR-based conditions. […] We compared the efficiency of generating PAX6 positive cells using either no small molecules, using dSMADi or using the single TGFβ inhibitor SB431542 (SB). We found robust PAX6 expression in the absence of dSMADi (˜40% of total cells on day 12 post induction). However, the percentage of cells expressing PAX6 was further improved upon addition of SB or dSMADi to nearly 90% and 80%, respectively (FIGS. 1E and 9B).

[5] = system: hPSC; experiment: Neural crest induction, SOX10 positive cells; assay type: cell-based, human
Method: (§1) All differentiations starting from E8 were dissociated into single cells using EDTA and replated at high density in E8 with the ROCK inhibitor (Tocris). Cells were typically seeded at a density of 200,000 cells/cm^2 on Matrigel coated dishes. Switching from E8 to E6 triggered differentiations (i.e. d0). Neuroectoderm (NE) formation was generated by culturing the cells in E6 with […] and 500 nM LDN until d12. Neural Crest (NC) was first treated with […], 600 nM CHIR and 1 ng/ml BMP4 from d0-d2. At d2, cells were maintained in […] with 1.5 uM CHIR until d12. Lens placode was first treated with […] and 5 ng/ml BMP4 from d0-d2. At d2, cells were maintained in […] with 100 ng/ml FGF2 until d12. Trigeminal placode was first treated with […] and 5 ng/ml BMP4 from d0-d2. At d2, CHIR was added to the SB and BMP4 until d4. Finally, non-neural ectoderm (NNE) was treated with 10 nM SB, 10 nM SU5402 and 20 ng/ml BMP4 until d12.

[6] = system: hPSC; experiment: BMP dose response for TFAP2A, NNE and CP induction in E6 media; assay type: cell-based, human
Method: as §1

[7] = three-day pulse with SB431542, dose-response

Q: With `c1cnc2c(c1)ccc1cccnc12` [Phenantroline] as the molecule, how does the “percentage of cells expressing Six1 (hit validation)” value ([1]; CP protocol) read?
A: Its value is “confirmed to reliably enhance the percentage of cells expressing Six1”.

Q: And the Six1 positive cells ([1]; CP protocol in the absence of FGF2, control 18%)?
A: Its Six1 positive cells is 69%.

Q: What about the “expression of Six1 versus control differentiations (primary screen hit)” value ([1]; LOPAC screen, CP protocol) of the same molecule?
A: Its value is “increased expression of SIX1”.

Q: And the “fold increase of Six1 positive cells” value ([1]; absence of FGF2, 69% versus 18%)?
A: Its value is roughly 4 fold.

Q: And the “expression of other lineage markers such as Sox10, T, MyoD or Sox17” value ([1]; differentiation towards CP)?
A: The value was “without inducing the expression of other lineage markers”.

Q: What about the “increase in Six1 expression over controls” value ([1]; differentiation towards CP) of the same molecule?
A: The value was “five-fold”.

Q: Which results are given for “Urocortin: stimulant of hormone release (Tocris, 500 nM) (DNPSLSIDLTFHLLRTLLELARTQSQRERAEQNRIIFDSV; ends and bridges not checked; UniProt P55089 83-122, looked up)”?
A: ACTH release [2]: specifically induced; ACTH release ([2]; listed as urocortin): induced release of ACTH

Q: What does the source list for `c1ccc2c(Oc3nc(Nc4ccc(N5CCOCC5)cc4)c4ncn(C5CCCCC5)c4n3)cccc2c1` [purmorphamine]?
A: cell death [3]: increase in cell death; induction of anterior pituitary genes / lineage markers [3]: robust induction of anterior pituitary-lineage markers

Q: For `CNC1CCC(N(Cc2cccc(-c3ccncc3)c2)C(=O)c2sc3ccccc3c2Cl)CC1` (centres unmarked) [SAG], which “induction of anterior pituitary genes / lineage markers” value [3] is on record?
A: Its value is “robust induction of anterior pituitary-lineage markers”.

Q: And the cell death ([3]; small-molecule-based induction replacing SHH)?
A: The cell death was “increase in cell death”.

Q: With `Cc1c[nH]c(/C=C2\C(=O)Nc3ccccc32)c1CCC(=O)O` [SU5402, 2-[(1,2-Dihydro-2-oxo-3H-indol-3-ylidene)methyl]-4-methyl-1H-pyrrole-3-pr-opanoic acid] as the molecule, how does the “cell killing during differentiation” value [4] read?
A: The value was “effectively killed the cells”.

Q: “CRF: stimulant of hormone release (Tocris, 1 μM) (SEEPPISLDLTFHLLREVLEMARAEQLAQQAHSNRKLMEII; ends and bridges not checked; UniProt P06850 154-194, looked up)” was tested. Which ACTH release [2] did it give?
A: The ACTH release was “induced release of ACTH; also recorded: specifically induced”.

Q: What does the source list for “Somatocrinin: stimulant of hormone release (Accurate Chemical, 1 μg/ml) (YADAIFTNSYRKVLGQLSARKLLQDIMSRQQGESNQERGARARL; ends and bridges not checked; UniProt P01286 32-75, looked up)”?
A: GH release [2]: induced; ACTH release ([2]; listed as somatocrinin): did not trigger ACTH release; GH release ([2]; listed as somatocrinin): triggered robust increase in GH release

Q: Which ACTH release [2] does the source give for “Ghrelin: stimulant of hormone release (Tocris, 1 μM) (GSSFLSPEHQRVQQRKESKKPPAKLQPR; also: octanoylated, site not given here; UniProt Q9UBU3 24-51, looked up)” here?
A: Its ACTH release is “did not trigger ACTH release”.

B1: BMP4: activator of BMP signaling (protein, UniProt P12644 293-408, looked up)
Bone morphogenetic protein 4: SPKHHSQRARKKNKNCRRHSLYVDFSDVGWNDWIVAPPGYQAFYCHGDCPFPLADHLNSTNHAIVQTLVNSVNSSIPKACCVPTELSAISMLYLDEYDKVVLKNYQEMVVEGCGCR
Q: Which “SOX10 positive NC population generated” value ([5]; short pulse of BMP4 (1 ng/ml) with Wnt activation and SB431542) does the source give for B1 here?
A: Its value is “nearly homogenous SOX10 positive NC population”.

Q: And the “BMP4 concentration giving strong NC induction” value [5, 7]?
A: Its value is “around 1 ng/ml”.

Q: What about the “BMP4 concentration optimal for CP induction” value [6, 7] of the same molecule?
A: The value was “around 5 ng/ml”.

B2: BMP: BMP signaling activator used in E6 media, BMP4 per methods (protein, UniProt P12644 293-408, looked up)
Bone morphogenetic protein 4: B1 Bone morphogenetic protein 4
Q: What does the source list for B2?
A: marker phenotype at high BMP (NNE) ([6]; 20 ng/ml BMP): cells become TFAP2A positive and lack the expression of SOX10 and SIX1; TFAP2A expression ([6]; within three days, with SB431542 in E6 media, dose dependent): rapidly upregulated
